US10556890B2, “Heteroaryl compounds and methods of use thereof” (Sunovion Pharmaceuticals Inc., priority 2012, dated 2020)

Legend:
C57Bl/6J mice = test: Pre-pulse Inhibition (PPI) of startle in mice; type: in vivo; parameters: key: −: No change in PPI; +: Significant increase in PPI at one pre-pulse intensity (P value < 0.05); ++: Significant increase in PPI at two pre-pulse intensities (P value < 0.05); +++: Significant increase in PPI at three pre-pulse intensities (P value < 0.05); details: 30 min prior to PPI test, vs. vehicle
Description: (§1) Anti-psychotic like activity of the compounds was evaluated […] using the PCP hyperactivity (in rats) and Pre-Pulse Inhibition (PPI; in mice) models of schizophrenia.
Animals—PPI: Male C57Bl/6J mice from Jackson Laboratories (Bar Harbor, Me.) were used in these studies. Upon receipt, mice were assigned unique identification numbers (tail marked) and were group housed with 4 mice per cage in OptiMICE ventilated cages. All animals remained housed in groups of four during the remainder of the study. All mice were acclimated to the colony room for at least one week prior to testing. During the period of acclimation, mice were examined on a regular basis, handled, and weighed to assure adequate health and suitability. Animals were maintained on a 12/12 light/dark cycle. The room temperature was maintained between 20 and 23° C. with a relative humidity maintained between 30% and 70%. Chow and water were provided ad libitum for the duration of the study. In each test, animals were randomly assigned across treatment groups.
The acoustic startle is an unconditioned reflex response to an external auditory stimulus. Prepulse inhibition of startle (PPI) refers to the reduction in the startle response caused by the presentation of a low-intensity auditory stimulus prior to the startle stimulus. The PPI paradigm is used for the study of schizophrenia and antipsychotic action due to the similarities between the results from human and rodent studies. PPI has been used as a tool for the assessment of deficiencies in sensory-motor gating observed in schizophrenia and to screen for potential antipsychotic drugs. Various psychotomimetic drugs such as PCP can disrupt PPI. In mice, antipsychotic drugs such as clozapine can reverse the disruption of PPI induced by PCP.
Mice were placed in the PPI chambers (Med Associates) for a 5 min session of white noise (70 dB) habituation. After the habituation period the test session was initiated. The session started with a habituation block of 6 presentations of the startle stimulus alone, followed by 10 PPI blocks, each of which consisted of 6 different types of trials. Trial types were: ‘null’ (no stimuli), ‘startle’ (120 dB), ‘startle plus prepulse’ (4, 8 and 12 dB over background noise, i.e., 74, 78 or 82 dB) and ‘prepulse’ (82 dB). Trial types were presented in a random order within each block. Each trial started with a 50 ms stimulus-free period during which baseline movements were recorded. This was followed by a subsequent 20 ms period during which the prepulse stimulus was presented and responses to the prepulse measured. After a further 100 ms period, the startle stimulus was presented for 40 ms and responses recorded for 100 ms from startle onset. Responses were sampled every ms. The inter-trial interval was variable with an average of 15 s (range from 10 to 20 s). In ‘startle’ trials the basic auditory startle response was measured. The basic startle response was calculated as the mean startle response of all ‘startle’ trials (i.e., excluding the first habituation block). In ‘startle plus prepulse’ trials the degree of inhibition of the normal startle was calculated and expressed as a percentage of the basic startle response.
Mice were treated with vehicle, haloperidol (1 mg/kg; i.p) or test compound 30 min prior to PPI test. The PPI enclosures were cleaned following each test.

Sprague Dawley rats = test: PCP-induced hyperactivity in rats; type: in vivo; parameters: key: −: No inhibition of PCP hyperactivity; +: Significant inhibition of PCP hyperactivity (P value < 0.05); details: vs. vehicle + PCP
Description: as §1
Animals: PCP Hyperactivity: Male Sprague Dawley rats from Harlan (Indianapolis, Ind.) were used in these studies. Upon receipt, rats were assigned unique identification numbers and were group housed with 3 rats per cage in polycarbonate cages with micro-isolator filter tops. All rats were examined, handled, and weighed prior to initiation of the study to assure adequate health and suitability. The rats were maintained at 12/12 light/dark cycle with lights on at 7:00 am EST. The room temperature was maintained between 20 and 23° C. with a relative humidity maintained around 50%. Chow and water were provided ad libitum for the duration of the study. For each test, animals were randomly assigned across treatment groups.
The test chambers were Plexiglas rectangular chambers (24×45 cm) that fit inside two steel frames (9.5×18 inches) and were fitted with two-dimensional 4×8 beam grids to monitor horizontal and vertical locomotor activity (Hamilton Kinder, San Diego, Calif.). The analysis was configured to divide the open field of the chamber into a center and a periphery zone. Distance traveled was measured from horizontal beam breaks as the rat traveled whereas rearing activity was measured from vertical beam breaks.
Rats were administered with vehicle, test compound, or risperidone (0.5-1 mg/kg; i.p) and placed in the test chambers for 30 min measurement of baseline activity. Rats were then injected with either water or PCP (2.5 mg/kg; s.c) and placed back in the test chambers for a 60-minute session. At the end of each test session the chambers were thoroughly cleaned.

[1] = 3 mg/kg Compound + PCP (2.5 mg/kg s.c.)
[2] = 10 mg/kg Compound + PCP (2.5 mg/kg s.c.)
[3] = 30 mg/kg Compound + PCP (2.5 mg/kg s.c.)

Structure (SMILES) | Effect on Pre-pulse Inhibition (PPI) (C57Bl/6J mice; 3 mg/kg) | Effect on Pre-pulse Inhibition (PPI) (C57Bl/6J mice; 10 mg/kg) | Effect on Pre-pulse Inhibition (PPI) (C57Bl/6J mice; 30 mg/kg) | Total Distance Traveled (cm), PCP-induced hyperactivity (Sprague Dawley rats; [1]) | Total Distance Traveled (cm), PCP-induced hyperactivity (Sprague Dawley rats; [2]) | Total Distance Traveled (cm), PCP-induced hyperactivity (Sprague Dawley rats; [3]) | Total Distance Traveled (cm), PCP-induced hyperactivity (Sprague Dawley rats; 100 mg/kg Compound + PCP (2.5 mg/kg s.c.))
Cl.Fc1sc2ccccc2c1C1C=CN=CN1 (stereo not drawn) [Compound 15] | − | + | ++ | − | − | − | 
Cc1cc(C2C=CN=CN2)cs1.Cl (stereo not drawn) [Compound 21] | − | − | − |  | − | − | −
Cc1sc2ccccc2c1C1C=CN=CN1 (stereo not drawn) [Compound 3] | + | + | +++ | − | + | + | 
Fc1ccc2c(c1)N=CNC2c1c(F)sc2ccccc12 (stereo not drawn) [Compound 239] | − | − | +++ | + (increase) | + (increase) | + (increase) | 
Cc1c(C2C=CN=CN2)sc2ccccc12.Cl (stereo not drawn) [Compound 20] | − | − | − | + | − | + | 
